Patent publication US5602099A, “δ opioid receptor antagonists” (Aktiebolaget Astra, priority 1993, dated 1997)
Read-outs that look alike come from different tables or passages of the source. Peptide text beside a SMILES is read from it.

Target: T1, δ opioid receptors (Mus musculus, UniProt P32300)
T1 construct: Bioassays Using Isolated Organ Preparations; from tissue; host or cells: mouse vas deferens (isolated organ)
Assay: Mouse vas deferens (MVD) bioassay, antagonism of electrically evoked contraction inhibition by δ-selective agonists
Format: tissue-based
Conditions: MVD assay, means of 3-8 determinations
Excerpt: a) Biosassys based on inhibition of electrically evoked contractions of the mouse vas deferens (MVD) and of the guinea pig ileum (GPI). In the GPI assay the opioid effect is primarily mediated by μ opioid receptors, whereas in the MVD assay the inhibition of the contractions is mostly due to interaction with δ opioid receptors.
The GPI and MVD bioassays were carded out as reported in P. W. Schiller et al., Biochem. Biophys. Res. Commun 85, 1332-1338 (1978) and J. Di Maio et al., J. Med. Chem. 25, 1432-1438 (1982). A log dose-response curve was determind with [Leu^5 ]enkephalin as standard for each ileum and vas preparation, and IC50 values of the compounds being tested were normalized according to A. A Waterfield et al., Eur. J. Pharmacol. 58, 11-18 (1979). […] These determinations were made with the MVD assay, using three different δ-selective agonists ([Leu^5 ] enkephalin, DPDPE and [D-Ala^2 ]deltorphin I].

[1] = δ agonist DPDPE, read-out: Ke (nM) against DPDPE
[2] = δ agonist [D-Ala2]deltorphin I, read-out: Ke (nM) against [D-Ala2]deltorphin I
[3] = δ agonist [Leu5]enkephalin, read-out: Ke (nM) against [Leu5]Enkephalin
[4] = Ke (nM) against DPDPE, δ agonist DPDPE
[5] = Ke (nM) against [D-Ala2]deltorphin I, δ agonist [D-Ala2]deltorphin I
[6] = Ke (nM) against [Leu5]Enkephalin, δ agonist [Leu5]enkephalin

T1 sequence (P32300 whole entry): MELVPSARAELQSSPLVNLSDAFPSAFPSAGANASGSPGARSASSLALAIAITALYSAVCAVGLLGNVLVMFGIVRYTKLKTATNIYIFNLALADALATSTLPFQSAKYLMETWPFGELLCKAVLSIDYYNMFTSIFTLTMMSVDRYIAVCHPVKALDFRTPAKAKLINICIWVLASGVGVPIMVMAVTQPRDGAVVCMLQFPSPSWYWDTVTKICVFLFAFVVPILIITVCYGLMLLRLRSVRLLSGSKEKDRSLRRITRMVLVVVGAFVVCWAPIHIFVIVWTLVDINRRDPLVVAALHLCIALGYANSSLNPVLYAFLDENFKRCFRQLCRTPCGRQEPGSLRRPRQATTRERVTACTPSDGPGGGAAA

| SMILES | Kb [1] [nM] | Kb [2] [nM] | Kb [3] [nM] | Kb [4] [nM] | Kb [5] [nM] | Kb [6] [nM] |
| --- | --- | --- | --- | --- | --- | --- |
| Cc1cc(O)cc(C)c1C[C@H](N)C(=O)N1Cc2ccccc2C[C@H]1C(=O)N[C@@H](Cc1ccccc1)C(=O)N[C@@H](Cc1ccccc1)C(=O)O [HDmtTicPhePheOH, H-Dmt-Tic-Phe-Phe-OH] (HELM PEPTIDE1{[Cc1cc(O)cc(C)c1C[C@H](N)C(=O)[*:2]].[Tic].F.F}$$$$V2.0) | 0.196 | 0.13 | 0.169 | – | – | – |
| CN[C@@H](Cc1ccc(O)cc1)C(=O)N1Cc2ccccc2C[C@H]1CN[C@@H](CCc1ccccc1)C(=O)N[C@@H](Cc1ccccc1)C(=O)O [Tyr(NMe)-Tic.psi.[CH2NH]HfePheOH, Tyr(NMe)-Tic.PSI.[CH2 --NH]Hfe-Phe-OH] | – | – | – | 0.902 | 0.418 | 0.78 |
| N[C@@H](Cc1ccc(O)cc1)C(=O)N1Cc2ccccc2C[C@H]1CN[C@@H](CCc1ccccc1)C(=O)N[C@@H](Cc1ccccc1)C(=O)O [HTyrTic.psi.[CH2NH]HfePheOH, H-Tyr-Tic-.PSI.[CH2 --NH]Hfe-Phe-OH] | – | – | – | 2.64 | 1.9 | 2.22 |
| N[C@@H](Cc1ccc(O)cc1)C(=O)N1Cc2ccccc2C[C@H]1C(=O)N[C@@H](Cc1ccccc1)C(=O)N[C@@H](Cc1ccc([N+](=O)[O-])cc1)C(=O)O [HTyrTicPhePhe(pNO2)OH, H-Tyr-Tic-Phe-Phe(pNO2)-OH] (HELM PEPTIDE1{Y.[Tic].F.[O=C(O)[C@H](Cc1ccc([N+](=O)[O-])cc1)N[*:1]]}$$$$V2.0) | – | – | – | 3.3 | 2.79 | 3.62 |
| O=C(O)[C@H](Cc1ccccc1)NC(=O)[C@H](Cc1ccccc1)NC(=O)[C@@H]1Cc2ccccc2CN1C(=O)[C@H](Cc1ccc(O)cc1)NCC1CC1 [Tyr(N^α Cpm)-TicPhePheOH, Tyr(N^α Cpm)-Tic-Phe-Phe-OH] | – | – | – | 28.2 | 32.5 | 29.6 |
| NC(=O)[C@H](CO)NC(=O)[C@@H]1CCCN1C(=O)[C@H](Cc1ccc(O)cc1)NC(=O)[C@H](Cc1ccc([N+](=O)[O-])cc1)NC(=O)[C@H](Cc1c[nH]c2ccccc12)NC(=O)[C@@H]1Cc2ccccc2CN1C(=O)[C@@H](N)Cc1ccc(O)cc1 [HTyrTicTrpPhe(pNO2)TyrProSerNH2, H-Tyr-Tic-Trp-Phe (pNO2) -Tyr-Pro-Ser-NH2] (HELM PEPTIDE1{Y.[Tic].W.[O=C([C@H](Cc1ccc([N+](=O)[O-])cc1)N[*:1])[*:2]].Y.P.S.[am]}$$$$V2.0) | – | – | – | 2.48 | 3.91 | 3.68 |
| NC(=O)[C@H](CO)NC(=O)[C@@H]1CCCN1C(=O)[C@H](Cc1ccc(O)cc1)NC(=O)[C@H](Cc1ccccc1)NC(=O)[C@H](Cc1c[nH]c2ccccc12)NC(=O)[C@@H]1Cc2ccccc2CN1C(=O)[C@@H](N)Cc1ccc(O)cc1 [HTyrTicTrpPheTyrProSerNH2, H-Tyr-Tic-Trp-Phe-Tyr-Pro-Ser-NH2] (HELM PEPTIDE1{Y.[Tic].W.F.Y.P.S.[am]}$$$$V2.0) | – | – | – | 3.65 | – | 4.2 |
| CCCC[C@H](NC(=O)[C@H](CC(C)C)NC(=O)[C@H](Cc1ccccc1)NC(=O)[C@H](Cc1ccccc1)NC(=O)[C@@H]1Cc2ccccc2CN1C(=O)[C@@H](N)Cc1ccc(O)cc1)C(=O)N[C@@H](CC(=O)O)C(N)=O [HTyrTicPhePheLeuNleAspNH2, H-Tyr-Tic-Phe-Phe-Leu-Nle-Asp-NH2] (HELM PEPTIDE1{Y.[Tic].F.F.L.[Nle].D.[am]}$$$$V2.0) | – | – | – | 10.4 | 10.8 | 21.4 |
| N[C@@H](Cc1ccc(O)c(Cl)c1)C(=O)N1Cc2ccccc2C[C@H]1C(=O)N[C@@H](Cc1ccccc1)C(=O)N[C@@H](Cc1ccccc1)C(=O)O [HTyr(3-Cl)TicPhePheOH, H-Tyr(3-Cl)-Tic-Phe-Phe-OH] (HELM PEPTIDE1{[N[C@@H](Cc1ccc(O)c(Cl)c1)C(=O)[*:2]].[Tic].F.F}$$$$V2.0) | – | – | – | 20.4 | 19.9 | 18 |
| N[C@@H](Cc1ccc(O)cc1)C(=O)N1Cc2ccccc2C[C@H]1C(=O)N[C@@H](Cc1c[nH]c2ccccc12)C(=O)N[C@@H](Cc1ccc([N+](=O)[O-])cc1)C(=O)O [HTyrTicTrpPhe(pNO2)OH, H-Tyr-Tic-Trp-Phe(pNO2)-OH] (HELM PEPTIDE1{Y.[Tic].W.[O=C(O)[C@H](Cc1ccc([N+](=O)[O-])cc1)N[*:1]]}$$$$V2.0) | – | – | – | 4.4 | 2.27 | 1.83 |
| Cc1cc(O)cc(C)c1C[C@H](N)C(=O)N1Cc2ccccc2C[C@H]1C(=O)N[C@@H](Cc1ccccc1)C(=O)N[C@@H](Cc1ccccc1)C(N)=O [HDmtTicPhePheNH2, H-Dmt-Tic-Phe-Phe-NH2] (HELM PEPTIDE1{[Cc1cc(O)cc(C)c1C[C@H](N)C(=O)[*:2]].[Tic].F.F.[am]}$$$$V2.0) | 0.209 | – | – | – | 0.26 | 0.221 |
| N[C@@H](Cc1ccc(O)c(Br)c1)C(=O)N1Cc2ccccc2C[C@H]1C(=O)N[C@@H](Cc1ccccc1)C(=O)N[C@@H](Cc1ccccc1)C(=O)O [HTyr(3-Br)TicPhePheOH, H-Tyr(3-Br)-Tic-Phe-Phe-OH] (HELM PEPTIDE1{[N[C@@H](Cc1ccc(O)c(Br)c1)C(=O)[*:2]].[Tic].F.F}$$$$V2.0) | – | – | – | 31.3 | 23.9 | 18.2 |
| N[C@@H](Cc1ccc(O)cc1)C(=O)N1Cc2ccccc2C[C@H]1C(=O)NC1(C(=O)N[C@@H](Cc2ccccc2)C(=O)O)CCc2ccccc2C1 (stereo partly drawn) [HTyrTicAtcPheOH, H-Tyr-Tic-Atc-Phe-OH] (HELM PEPTIDE1{Y.[Tic].[O=C(C1(N[*:1])CCc2ccccc2C1)[*:2]].F}$$$$V2.0) | – | – | – | 1.85 | 0.927 | 1.63 |
| N[C@@H](Cc1ccc(O)cc1)C(=O)N1Cc2ccccc2C[C@H]1C(=O)N[C@@H](Cc1ccccc1)C(=O)N[C@@H](Cc1ccccc1)C(=O)O [HTyrTicPhePheOH, H-Tyr-Tic-Phe-Phe-OH] (HELM PEPTIDE1{Y.[Tic].F.F}$$$$V2.0) | 4.8 | 2.96 | 5.86 | – | – | – |
| N[C@@H](Cc1ccc(O)cc1)C(=O)N1Cc2ccccc2C[C@H]1C(=O)N[C@@H](Cc1c[nH]c2ccccc12)C(=O)O [HTyrTicTrpOH] (HELM PEPTIDE1{Y.[Tic].W}$$$$V2.0) | – | – | – | 6.23 | 5.36 | 10.6 |
| N[C@@H](Cc1ccc(O)c(F)c1)C(=O)N1Cc2ccccc2C[C@H]1C(=O)N[C@@H](Cc1ccccc1)C(=O)N[C@@H](Cc1ccccc1)C(=O)O [HTyr(3-F)TicPhePheOH, H-Tyr(3-F)-Tic-Phe-Phe-OH] (HELM PEPTIDE1{[N[C@@H](Cc1ccc(O)c(F)c1)C(=O)[*:2]].[Tic].F.F}$$$$V2.0) | – | – | – | 13 | 8.73 | 5.88 |
| CCN(CC)[C@@H](Cc1ccc(O)cc1)C(=O)N1Cc2ccccc2C[C@H]1C(=O)N[C@@H](Cc1ccccc1)C(=O)N[C@@H](Cc1ccccc1)C(=O)O [Tyr(N^α Et2)-TicPhePheOH, Tyr(N^α Et2)-Tic-Phe-Phe-OH] | – | – | – | 0.893 | 2.3 | 3.39 |
